Like-named read-outs stand apart in the source and are kept apart here.
Experiments:
[1] = biological target: panel of more than 300 wild-type and mutant kinases (313 kinase panel) (Homo sapiens, UniProt P00519); test: Kinase profiling in a biochemical assay panel (mobility shift assays and ELISA), %-inhibition at 1 μM; selectivity entropy; conditions: kinase ABL; 1 μM compound
[2] = biological target: panel of more than 300 wild-type and mutant kinases (313 kinase panel) (Homo sapiens, UniProt P51451); test: as above; conditions: kinase BLK; 1 μM compound
[3] = biological target: panel of more than 300 wild-type and mutant kinases (313 kinase panel) (Homo sapiens, UniProt P00533); test: as above; conditions: kinase EGFR; compound at 1 μM
[4] = biological target: panel of more than 300 wild-type and mutant kinases (313 kinase panel) (Homo sapiens, UniProt P07947, T348I); test: as above; conditions: kinase YES(T348I); compound at 1 μM
[5] = biological target: panel of more than 300 wild-type and mutant kinases (313 kinase panel) (Homo sapiens, UniProt P42684); test: as above; conditions: kinase ARG; 1 μM compound
[6] = biological target: panel of more than 300 wild-type and mutant kinases (313 kinase panel) (Homo sapiens, UniProt P35968); test: as above; conditions: kinase KDR; compound at 1 μM
[7] = biological target: panel of more than 300 wild-type and mutant kinases (313 kinase panel) (Homo sapiens, UniProt P00533, L858R); test: as above; conditions: kinase EGFR(L858R); compound at 1 μM
[8] = biological target: panel of more than 300 wild-type and mutant kinases (313 kinase panel) (Homo sapiens, UniProt P15056); test: as above; conditions: kinase BRAF; 1 μM compound
[9] = biological target: T1, panel of more than 300 wild-type and mutant kinases (313 kinase panel) (Homo sapiens, UniProt P00540); test: as above; conditions: kinase MOS; 1 μM
T1 sequence (P00540 1-346): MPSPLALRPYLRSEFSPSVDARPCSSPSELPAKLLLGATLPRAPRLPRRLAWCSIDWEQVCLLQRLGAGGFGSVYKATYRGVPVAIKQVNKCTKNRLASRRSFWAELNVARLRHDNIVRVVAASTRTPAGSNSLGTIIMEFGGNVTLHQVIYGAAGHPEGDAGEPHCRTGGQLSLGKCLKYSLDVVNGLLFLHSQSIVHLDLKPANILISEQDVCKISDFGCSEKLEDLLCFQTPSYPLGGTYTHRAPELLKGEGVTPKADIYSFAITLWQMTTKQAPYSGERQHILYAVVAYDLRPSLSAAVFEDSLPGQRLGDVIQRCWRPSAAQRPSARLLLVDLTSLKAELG

[10] = biological target: panel of more than 300 wild-type and mutant kinases (313 kinase panel) (Homo sapiens, UniProt P00533, L861Q); test: as above; conditions: kinase EGFR(L861Q); compound at 1 μM
[11] = biological target: panel of more than 300 wild-type and mutant kinases (313 kinase panel) (Homo sapiens, UniProt P51617); test: as above; conditions: kinase IRAK1; compound at 1 μM
[12] = biological target: panel of more than 300 wild-type and mutant kinases (313 kinase panel) (Homo sapiens, UniProt P11362, V561M); test: as above; conditions: kinase FGFR1(V561M); compound at 1 μM
[13] = biological target: panel of more than 300 wild-type and mutant kinases (313 kinase panel) (Homo sapiens, UniProt P00533, T790M); test: as above; conditions: kinase EGFR(T790M); compound at 1 μM
[14] = test system: forty-four human cancer cell lines; test: Cell proliferation assay (ATPlite, 72 hours) in the 44 cell line Oncolines panel; assay type: cell-based; conditions: Homo sapiens
[15] = A 172, read-out: cell panel IC50, A-172
[16] = A204, cell line A-204, read-out: cell panel IC50, A-204
[17] = A498, read-out: cell panel IC50, A-498
[18] = A549, read-out: cell panel IC50, A-549
[19] = A-375, cell line A375, read-out: cell panel IC50, A375
[20] = A-427, read-out: cell panel IC50, A-427
[21] = AU565, read-out: cell panel IC50, AU-565
[22] = BT-549, read-out: cell panel IC50, BT-549
[23] = HCT-116, read-out: cell panel IC50, HCT-116
[24] = K562, read-out: cell panel IC50, K-562
[25] = LS174T, read-out: cell panel IC50, LS 174T
[26] = SHP77, cell line SHP-77, read-out: cell panel IC50, SHP-77
[27] = SW-620, cell line SW620, read-out: cell panel IC50, SW620
[28] = U2OS, cell line U-2 OS, read-out: cell panel IC50, U-2 OS
[29] = cell line J82, read-out: cell panel IC50, J82
[30] = cell line PA-1, read-out: cell panel IC50, PA-1
[31] = cell line SJCRH30, read-out: cell panel IC50, SJCRH30
[32] = cell line SR, read-out: cell panel IC50, SR
[33] = U-87 MG cell line, ATPlite, 72 hours, read-out: IC50 in cell proliferation assay (table S5 cellpanel data)
[34] = cell line 769-P, read-out: cell panel IC50, 769-P
[35] = cell line 786-0, read-out: cell panel IC50, 786-0
[36] = cell line ACHN, read-out: cell panel IC50, ACHN
[37] = cell line AN3 CA, read-out: cell panel IC50, AN3 CA
[38] = cell line BT-20, read-out: cell panel IC50, BT-20
[39] = cell line BxPC-3, read-out: cell panel IC50, BxPC-3
[40] = cell line C-33 A, read-out: cell panel IC50, C-33 A
[41] = cell line CAL 27, read-out: cell panel IC50, CAL 27
[42] = cell line CCRF-CEM, read-out: cell panel IC50, CCRF-CEM
[43] = cell line DLD-1, read-out: cell panel IC50, DLD-1
[44] = cell line FaDu, read-out: cell panel IC50, FaDu
[45] = cell line HCT-15, read-out: cell panel IC50, HCT-15
[46] = cell line Hs 578T, read-out: cell panel IC50, Hs 578T
[47] = cell line Jurkat E6.1, read-out: cell panel IC50, Jurkat E6.1
[48] = cell line LoVo, read-out: cell panel IC50, LoVo
[49] = cell line MG-63, read-out: cell panel IC50, MG-63
[50] = cell line MOLT-4, read-out: cell panel IC50, MOLT-4
[51] = cell line MeWo, read-out: cell panel IC50, MeWo
[52] = cell line NCI-H82, read-out: cell panel IC50, NCI-H82
[53] = cell line NCI-H460, read-out: cell panel IC50, NCI-H460
[54] = cell line OVCAR-3, read-out: cell panel IC50, OVCAR-3
[55] = cell line RPMI-7951, read-out: cell panel IC50, RPMI-7951
[56] = cell line SK-N-AS, read-out: cell panel IC50, SK-N-AS
[57] = cell line SW48, read-out: cell panel IC50, SW48
[58] = cell line SW480, read-out: cell panel IC50, SW480

## CCCS(=O)(=O)Nc1ccc(F)c(C(=O)c2c[nH]c3ncc(-c4ccc(Cl)cc4)cc23)c1F [vemurafenib]
[1]
  %-inhibition, ABL: 15%
[2]
  %-inhibition, BLK: 52%
[3]
  %-inhibition of EGFR: 7%
[4]
  %-inhibition of YES(T348I): 4%
[5]
  %-inhibition, ARG: 7%
[6]
  %-inhibition of KDR: 13%
[7]
  %-inhibition of EGFR(L858R): 0.505%
[8]
  %-inhibition, BRAF: 99%
[9]
  %-inhibition of MOS: 10%
[10]
  %-inhibition of EGFR(L861Q): 5%
[11]
  %-inhibition of IRAK1: 10%
[12]
  %-inhibition of FGFR1(V561M): 5.37%
[13]
  %-inhibition of EGFR(T790M): -5.57%
[14]; [15]
  IC50: > 31.6 µM
[14]; [16]
  IC50: > 31.6 µM
[14]; [17]
  IC50: 20.6 µM
[14]; [18]
  IC50: 29.2 µM
[14]; [19]
  IC50: 3.98 µM
[14]; [20]
  IC50: > 31.6 µM
[14]; [21]
  IC50: > 31.6 µM
[14]; [22]
  IC50: 26.9 µM
[14]; [23]
  IC50: > 31.6 µM
[14]; [24]
  IC50: 29.9 µM
[14]; [25]
  IC50: > 31.6 µM
[14]; [26]
  IC50: > 31.6 µM
[14]; [27]
  IC50: 31.6 µM
[14]; [28]
  IC50: > 31.6 µM
[14]; [29]
  IC50: > 31.6 µM
[14]; [30]
  IC50: 10.3 µM
[14]; [31]
  IC50: > 31.6 µM
[14]; [32]
  IC50: 8.86 µM
[14]; [33]
  IC50: > 31.6 µM
[14]; [34]
  IC50: > 31.6 µM
[14]; [35]
  IC50: 22.6 µM
[14]; [36]
  IC50: 24 µM
[14]; [37]
  IC50: > 31.6 µM
[14]; [38]
  IC50: > 31.6 µM
[14]; [39]
  IC50: 14.2 µM
[14]; [40]
  IC50: > 31.6 µM
[14]; [41]
  IC50: > 31.6 µM
[14]; [42]
  IC50: 23 µM
[14]; [43]
  IC50: > 31.6 µM
[14]; [44]
  IC50: > 31.6 µM
[14]; [45]
  IC50: 30.6 µM
[14]; [46]
  IC50: 24.8 µM
[14]; [47]
  IC50: 27.1 µM
[14]; [48]
  IC50: 31.3 µM
[14]; [49]
  IC50: > 31.6 µM
[14]; [50]
  IC50: 31.1 µM
[14]; [51]
  IC50: > 31.6 µM
[14]; [52]
  IC50: 30.4 µM
[14]; [53]
  IC50: 30.4 µM
[14]; [54]
  IC50: > 31.6 µM
[14]; [55]
  IC50: 20.9 µM
[14]; [56]
  IC50: > 31.6 µM
[14]; [57]
  IC50: > 31.6 µM
[14]; [58]
  IC50: 22.5 µM

## CNC(=O)c1cc(Oc2ccc(NC(=O)Nc3ccc(Cl)c(C(F)(F)F)c3)c(F)c2)ccn1 [regorafenib]
[1]
  %-inhibition, ABL: 68%
[2]
  %-inhibition, BLK: 25%
[3]
  %-inhibition of EGFR: 12%
[4]
  %-inhibition of YES(T348I): 40%
[5]
  %-inhibition, ARG: 35%
[6]
  %-inhibition of KDR: 103%
[7]
  %-inhibition of EGFR(L858R): 2.24%
[9]
  %-inhibition of MOS: 0.399%
[10]
  %-inhibition of EGFR(L861Q): 6%
[11]
  %-inhibition of IRAK1: 16%
[13]
  %-inhibition of EGFR(T790M): -7.38%
[14]; [15]
  IC50: 3.95 µM
[14]; [16]
  IC50: 3.01 µM
[14]; [17]
  IC50: 3.41 µM
[14]; [18]
  IC50: 2.92 µM
[14]; [19]
  IC50: 3.56 µM
[14]; [20]
  IC50: 8.73 µM
[14]; [21]
  IC50: 0.687 µM
[14]; [22]
  IC50: 16.6 µM
[14]; [23]
  IC50: 3.51 µM
[14]; [24]
  IC50: 4.17 µM
[14]; [25]
  IC50: 3.76 µM
[14]; [26]
  IC50: > 31.6 µM
[14]; [27]
  IC50: 9.66 µM
[14]; [28]
  IC50: 3.08 µM
[14]; [29]
  IC50: 3.27 µM
[14]; [30]
  IC50: 2.96 µM
[14]; [31]
  IC50: 10.7 µM
[14]; [32]
  IC50: 3.1 µM
[14]; [33]
  IC50: 11.8 µM
[14]; [34]
  IC50: 2.9 µM
[14]; [35]
  IC50: 7.29 µM
[14]; [36]
  IC50: 1.82 µM
[14]; [37]
  IC50: 5.84 µM
[14]; [38]
  IC50: 3.93 µM
[14]; [39]
  IC50: 4 µM
[14]; [40]
  IC50: 1.02 µM
[14]; [41]
  IC50: 1.54 µM
[14]; [42]
  IC50: 9.54 µM
[14]; [43]
  IC50: 3.54 µM
[14]; [44]
  IC50: 1.62 µM
[14]; [45]
  IC50: 3.15 µM
[14]; [46]
  IC50: 22.6 µM
[14]; [47]
  IC50: 2.52 µM
[14]; [48]
  IC50: 2.7 µM
[14]; [49]
  IC50: 3.63 µM
[14]; [50]
  IC50: 3.31 µM
[14]; [51]
  IC50: 30.8 µM
[14]; [52]
  IC50: 3.58 µM
[14]; [53]
  IC50: 3.95 µM
[14]; [54]
  IC50: 3.63 µM
[14]; [55]
  IC50: 5.88 µM
[14]; [56]
  IC50: 6.43 µM
[14]; [57]
  IC50: 1.01 µM
[14]; [58]
  IC50: > 31.6 µM
